This note sets out measurements from patent US7638639B2, “Substituted pyrrolidine and related compounds” (Theravance, Inc., priority 2003, dated 2009).

Structures are written as SMILES.

For this experiment, the target named is T1, hM2 muscarinic receptor subtype (Homo sapiens, UniProt P08172).
T1 construct: expressed in transfected cells
T1 sequence (P08172 1-466): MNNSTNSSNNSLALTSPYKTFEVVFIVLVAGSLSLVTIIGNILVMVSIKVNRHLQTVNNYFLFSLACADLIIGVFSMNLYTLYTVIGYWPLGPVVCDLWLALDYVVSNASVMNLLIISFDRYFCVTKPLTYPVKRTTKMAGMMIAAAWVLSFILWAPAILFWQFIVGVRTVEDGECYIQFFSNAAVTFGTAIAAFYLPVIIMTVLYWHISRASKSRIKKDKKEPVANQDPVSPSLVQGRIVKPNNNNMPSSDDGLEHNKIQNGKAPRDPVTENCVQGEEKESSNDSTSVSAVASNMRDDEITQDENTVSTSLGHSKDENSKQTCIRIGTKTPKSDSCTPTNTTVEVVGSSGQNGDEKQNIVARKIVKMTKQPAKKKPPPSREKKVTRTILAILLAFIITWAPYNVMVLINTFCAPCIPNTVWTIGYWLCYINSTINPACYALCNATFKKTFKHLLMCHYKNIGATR
Kind of experiment: Radioligand binding assay ([3H]-NMS displacement), hM2. As to the method:
A. Membrane Preparation from Cells Expressing hM1, hM2, hM3 and hM4 Muscarinic Receptor Subtypes
CHO (Chinese hamster ovary) cell lines stably expressing cloned human hM1, hM2, hM3 and hM4 muscarinic receptor subtypes, respectively, were grown to near confluency in medium consisting of HAM's F-12 supplemented with 10% FBS (Fetal Bovine Serum) and 250 μg/mL Geneticin. The cells were grown in a 5% CO2, 37° C. incubator and lifted with 2 mm EDTA in dPBS. Cells were collected by 5 minute centrifugation at 650×g, and cell pellets were either stored frozen at −80° C. or membranes were prepared immediately. For membrane preparation, cell pellets were resuspended in lysis buffer and homogenized with a Polytron PT-2100 tissue disrupter (Kinematica AG; 20 seconds×2 bursts). Crude membranes were centrifuged at 40,000×g for 15 minutes at 4° C. The membrane pellet was then resuspended with resuspension buffer and homogenized again with the Polytron tissue disrupter. The protein concentration of the membrane suspension was determined by the method described in Lowry, O. et al., 1951, […]: 193, 265. All membranes were stored frozen in aliquots at −80° C. or used immediately. Aliquots of prepared hM5 receptor membranes were purchased directly from Perkin Elmer and stored at −80° C. until use.
B. Radioligand Binding Assay on Muscarinic Receptor Subtypes hM1, hM2, hM3, hM4 and hM5
Radioligand binding assays were performed in 96-well microtiter plates in a total assay volume of 100 μL. CHO cell membranes stably expressing either the hM1, hM2, hM3, hM4 or hM5 muscarinic subtype were diluted in assay buffer to the following specific target protein concentrations (μg/well): 10 μg for hM1, 10-15 μg for hM2, 10-20 μg for hM3, 10-20 μg for hM4, and 10-12 μg for hM5. The membranes were briefly homogenized using a Polytron tissue disruptor (10 seconds) prior to assay plate addition. Saturation binding studies for determining KD values of the radioligand were performed using L-[N-methyl-3H]scopolamine methyl chloride ([^3H]-NMS) (TRK666, 84.0 Ci/mmol, Amersham Pharmacia Biotech, Buckinghamshire, England) at concentrations ranging from 0.001 nM to 20 nM. Displacement assays for determination of Ki values of test compounds were performed with [^3H]-NMS at 1 nM and eleven different test compound concentrations. The test compounds were initially dissolved to a concentration of 400 μM in dilution buffer and then serially diluted 5× with dilution buffer to final concentrations ranging from […] to […]. The addition order and volumes to the assay plates were as follows: 25 μL radioligand, 25 μL diluted test compound, and 50 μL membranes. Assay plates were incubated for 60 minutes at 37° C. Binding reactions were terminated by rapid filtration over GF/B glass fiber filter plates (PerkinElmer Inc., Wellesley, Mass.) pre-treated in 1% BSA. Filter plates were rinsed three times with wash buffer (10 mm HEPES) to remove unbound radioactivity. Plates were then air dried, and 50 μL Microscint-20 liquid scintillation fluid (PerkinElmer Inc., Wellesley, Mass.) was added to each well. The plates were then counted in a PerkinElmer Topcount liquid scintillation counter (PerkinElmer Inc., Wellesley, Mass.). Binding data were analyzed by nonlinear regression analysis with the GraphPad Prism Software package (GraphPad Software, Inc., San Diego, Calif.) using the one-site competition model. Ki values for test compounds were calculated from observed IC50 values and the KD value of the radioligand using the Cheng-Prusoff equation (Cheng Y; Prusoff W H. (1973) Biochemical Pharmacology, 22(23):3099-108). Ki values were converted to pKi values to determine the geometric mean and 95% confidence intervals. These summary statistics were then converted back to Ki values for data reporting.

The Ki is a dissociation constant, usually derived from enzyme kinetics or from competition with a known ligand. With `CNCCCCCCCCN1CC[C@@H](C(C(N)=O)(c2ccccc2)c2ccccc2)C1` [Example 1, 2-[(S)-1-(8-Methylaminooctyl)pyrrolidin-3-yl]-2,2-diphenylacetamide], for the setting “CHO cell membranes, [3H]-NMS 1 nM, read-out: hM2 binding affinity (Ki)”, the Ki worked out at 3.8 nM. In addition, the “Δ hM2: change in binding affinity relative to compound of the invention” value (ratio of hM2 Ki values) is recorded as “×4.7”.
